Data: article PMC6164663, “Flavonoids as Putative Epi-Modulators: Insight into Their Binding Mode with BRD4 Bromodomains Using Molecular Docking and Dynamics” (Biomolecules, 2018)

Target: T1, BRD4 (Homo sapiens, UniProt O60885)
T1 construct: tandem (BD1 + BD2)
Assay: AlphaScreen binding assay with H4 peptide ([…]) K5/[…] Ac, duplicate dose-response (IC50 […])
Details: read-out: DATA 2

In the case of O=c1cc(-c2ccc(O)c(-c3c(O)cc(O)c4c(=O)cc(-c5ccc(O)cc5)oc34)c2)oc2cc(O)cc(O)c12 [amentoflavone], the IC50 is reported as 30.4 µM.
